In brackets after ≈: the same amount, converted by molar mass.

In the assay the test system is Mycobacterium tuberculosis. Kind of assay: Antimycobacterial activity against multidrug-resistant Mycobacterium tuberculosis XDR 173 by BACTEC 460 radiometric method. It counts as functional.
`CC(C)=CCC/C(C)=C/CC/C(C)=C/CNCCNC1C2CC3CC(C2)CC1C3` (centres undefined): the lowest concentration to inhibit growth (MIC) was 0.25 µM (≈ 0.0997 µg/mL).

Turning to `CC(C)CCCC(C)CCCC(C)CCNCCNC1C2CC3CC(C2)CC1C3` (centres undefined), the minimum inhibitory concentration (MIC) (commonly the least concentration at which growth counts as inhibited) was determined as 1 µM (≈ 0.405 µg/mL).

The compound `CC(C)CCCC(C)CCNCCNC12CC3CC(CC(C3)C1)C2` (centres undefined) gave an MIC of 0.5 µM (≈ 0.167 µg/mL).

The compound `CC(C)=CCC/C(C)=C/CNCCNC1C2CC3CC(C2)CC1C3` (centres undefined) [SQ109] displayed an MIC of 0.5 µM (≈ 0.165 µg/mL).
